Laboratory results taken from patent publication US20240270762A1, “PENICILLIN-BINDING PROTEIN INHIBITORS” (priority 2021, published 2024).
pEC50, pIC50: −log10 of the molar value. In brackets after ≈: the same amount, converted by molar mass. Where two headings read alike, the source gives them in different places.

How the values were obtained:
[1] = molecular target: T1, PBP3 from Escherichia coli (K-12) (Escherichia coli, UniProt P0AD68); assay: Bocillin-FL fluorescence polarization competition binding, E. coli PBP3
T1 construct: made in house
T1 sequence (P0AD68 1-577): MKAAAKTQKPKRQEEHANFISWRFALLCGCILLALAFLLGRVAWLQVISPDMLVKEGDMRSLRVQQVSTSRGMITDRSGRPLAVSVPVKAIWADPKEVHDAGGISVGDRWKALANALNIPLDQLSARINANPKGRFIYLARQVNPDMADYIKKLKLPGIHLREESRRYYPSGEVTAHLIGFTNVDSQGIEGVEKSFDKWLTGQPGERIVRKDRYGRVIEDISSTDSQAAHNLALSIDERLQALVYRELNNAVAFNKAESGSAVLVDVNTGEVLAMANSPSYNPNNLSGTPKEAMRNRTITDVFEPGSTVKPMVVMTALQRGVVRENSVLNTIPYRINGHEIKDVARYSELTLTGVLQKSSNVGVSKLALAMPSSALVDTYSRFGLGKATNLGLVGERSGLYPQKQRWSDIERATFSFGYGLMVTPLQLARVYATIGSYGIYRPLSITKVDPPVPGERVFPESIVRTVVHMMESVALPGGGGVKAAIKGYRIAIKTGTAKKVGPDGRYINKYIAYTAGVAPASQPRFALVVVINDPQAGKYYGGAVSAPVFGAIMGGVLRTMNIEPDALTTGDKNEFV
Outline: (§1)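 Purified PBP was preincubated with inhibitor (E. coli PBP3 1.5 μM, 30 min; P. aeruginosa PBP3 0.75 μM, A. baumannii PBP3 0.2 μM and PBP1a 1 μM, 15 min), then Bocillin-FL (0.1 μM; 0.05 μM for PBP1a) added and FP read up to 60 min. EC50 = 50% loss of bound probe.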

[2] = molecular target: T2, PBP3 from Acinetobacter baumannii (ATCC 19606) (Acinetobacter baumannii, UniProt A0ABX6CK25); assay: Bocillin-FL fluorescence polarization competition binding, A. baumannii PBP3; settings: fluorescence polarization competition binding assay using Bocillin-FL; read-out: A. baumannii PBP3 Potency
T2 sequence (A0ABX6CK25 64-610): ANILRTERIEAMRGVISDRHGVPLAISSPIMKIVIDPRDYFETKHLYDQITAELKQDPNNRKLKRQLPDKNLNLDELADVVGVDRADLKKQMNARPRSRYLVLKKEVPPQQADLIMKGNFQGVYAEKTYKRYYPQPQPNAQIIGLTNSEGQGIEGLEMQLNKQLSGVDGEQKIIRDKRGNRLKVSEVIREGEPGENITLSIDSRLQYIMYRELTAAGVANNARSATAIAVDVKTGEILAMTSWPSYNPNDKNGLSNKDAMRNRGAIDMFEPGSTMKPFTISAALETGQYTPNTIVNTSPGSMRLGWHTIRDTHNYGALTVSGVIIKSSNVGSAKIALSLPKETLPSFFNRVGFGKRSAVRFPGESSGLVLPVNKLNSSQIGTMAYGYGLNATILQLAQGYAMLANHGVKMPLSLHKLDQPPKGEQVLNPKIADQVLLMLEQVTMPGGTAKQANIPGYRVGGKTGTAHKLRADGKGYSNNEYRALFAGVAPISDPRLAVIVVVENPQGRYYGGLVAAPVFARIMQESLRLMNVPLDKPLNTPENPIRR
Outline: as §1

A. baumannii ATCC 17978 = assay: microbe, parasite or virus in culture; type: cell-based; settings: Acinetobacter baumannii, ATCC17978, read-out: MIC, A. baumannii ATCC 17978
P. aeruginosa ATCC 35151 = assay: microbe, parasite or virus in culture; type: cell-based; settings: Pseudomonas aeruginosa, ATCC35151, read-out: Minimum inhibitory concentration, P. aeruginosa ATCC 35151
[3] = tested on: P. aeruginosa (ΔmexAB-oprM); assay: Broth microdilution MIC in iron-depleted CAMHB (IDM); type: cell-based; settings: Pseudomonas aeruginosa; iron-depleted CAMHB (IDM); […]; read-out: Minimum inhibitory concentration, P. aeruginosa ΔmexAB-oprM
P. aeruginosa CDC-0054 = assay: microbe, parasite or virus in culture; type: cell-based; settings: Pseudomonas aeruginosa, CDC0054, read-out: Minimum inhibitory concentration, P. aeruginosa CDC-0054
[4] = tested on: N. gonorrhoeae ATCC 49226; assay: Liquid broth MIC in Fastidious broth; settings: Neisseria gonorrhoeae
N. gonorrhoeae MS11 = assay: Liquid broth MIC in Fastidious broth; settings: Neisseria gonorrhoeae
N. gonorrhoeae WHO K = assay: Liquid broth MIC in Fastidious broth; settings: Neisseria gonorrhoeae
N. gonorrhoeae WHO Z = assay: Liquid broth MIC in Fastidious broth; settings: Neisseria gonorrhoeae
[5] = ATCC49226, read-out: Minimum Inhibitory Concentration, ATCC 49226
[6] = MS11, read-out: Minimum Inhibitory Concentration, MS11
[7] = read-out: Minimum Inhibitory Concentration, WHO K
[8] = read-out: Minimum Inhibitory Concentration, WHO Z
[9] = ATCC49226, read-out: Minimum Inhibitory Concentration (MIC), N. gonorrhoeae ATCC 49226
[10] = MS11, read-out: Minimum Inhibitory Concentration (MIC), N. gonorrhoeae MS11
[11] = read-out: Minimum Inhibitory Concentration (MIC), N. gonorrhoeae WHO K
[12] = read-out: Minimum Inhibitory Concentration (MIC), N. gonorrhoeae WHO Z

| SMILES | pEC50 [1] | pIC50 [2] | MIC (A. baumannii ATCC 17978) | MIC (P. aeruginosa ATCC 35151) | MIC [3] | MIC (P. aeruginosa CDC-0054) | MIC [4, 5] | MIC (N. gonorrhoeae MS11; [6]) | MIC (N. gonorrhoeae WHO K; [7]) | MIC (N. gonorrhoeae WHO Z; [8]) | MIC [4, 9] | MIC (N. gonorrhoeae MS11; [10]) | MIC (N. gonorrhoeae WHO K; [11]) | MIC (N. gonorrhoeae WHO Z; [12]) |
| --- | --- | --- | --- | --- | --- | --- | --- | --- | --- | --- | --- | --- | --- | --- |
| O=C(NCCCS(=O)(=O)N1CCN(C(=O)NC(C(=O)N[C@H]2Cc3ccc(F)c(C(=O)O)c3OB2O)c2cc(F)c(O)c(O)c2Cl)C1=O)c1cccnc1 (stereo partly drawn) [Example 273, (3R)-3-(2-(2-chloro-5-fluoro-3,4-dihydroxyphenyl)-2-(3-((3-(nicotinamido)propyl)sulfonyl)-2-oxoimidazolidine-1-carboxamido)acetamido)-7-fluoro-2-hydroxy-3,4-dihydro-2H-benzo[e][1,2]oxaborinine-8-carboxylic acid] | > 5.00 | > 5.00 | < 1 µg/mL | < 1 µg/mL | < 1 µg/mL | 2 to 4 µg/mL (≈ 2.56 to 5.12 µM) | 16 to 32 µg/mL (≈ 20.5 to 41 µM) | 16 to 32 µg/mL (≈ 20.5 to 41 µM) | > 64 µg/mL | 4 to 8 µg/mL (≈ 5.12 to 10.2 µM) | – | – | – | – |
| O=C(NCCN1CCN(C(=O)NC(C(=O)N[C@H]2Cc3ccc(F)c(C(=O)O)c3OB2O)c2cc(F)c(O)c(O)c2Cl)C1=O)c1nccs1 (stereo partly drawn) [Example 247, (3R)-3-(2-(2-chloro-5-fluoro-3,4-dihydroxyphenyl)-2-(2-oxo-3-(2-(thiazole-2-carboxamido)ethyl)imidazolidine-1-carboxamido)acetamido)-7-fluoro-2-hydroxy-3,4-dihydro-2H-benzo[e][1,2]oxaborinine-8-carboxylic acid] | 4.30 to 5.00 | > 5.00 | < 1 µg/mL | < 1 µg/mL | < 1 µg/mL | 2 to 4 µg/mL (≈ 2.82 to 5.64 µM) | 16 to 32 µg/mL (≈ 22.6 to 45.1 µM) | 16 to 32 µg/mL (≈ 22.6 to 45.1 µM) | > 64 µg/mL | 16 to 32 µg/mL (≈ 22.6 to 45.1 µM) | – | – | – | – |
| O=C(O)c1c(F)ccc2c1OB(O)[C@@H](NC(=O)C(NC(=O)N1CCN(CCCNC(=O)[C@@H]3CCCN3)C(=O)C1=O)c1cc(F)c(O)c(O)c1Cl)C2 (stereo partly drawn) [Example 212, (3R)-3-(2-(2-chloro-5-fluoro-3,4-dihydroxyphenyl)-2-(2,3-dioxo-4-(3-((S)-pyrrolidine-2-carboxamido)propyl)piperazine-1-carboxamido)acetamido)-7-fluoro-2-hydroxy-3,4-dihydro-2H-benzo[e][1,2]oxaborinine-8-carboxylic acid] | 4.30 to 5.00 | > 5.00 | < 1 µg/mL | < 1 µg/mL | < 1 µg/mL | 8 to 16 µg/mL (≈ 10.9 to 21.7 µM) | – | – | – | – | 16 to 32 µg/mL (≈ 21.7 to 43.4 µM) | 16 to 32 µg/mL (≈ 21.7 to 43.4 µM) | > 64 µg/mL | > 64 µg/mL |
| O=C(NCCCN1CCN(C(=O)NC(C(=O)N[C@H]2Cc3ccc(F)c(C(=O)O)c3OB2O)c2cc(F)c(O)c(O)c2Cl)C(=O)C1=O)c1ccncc1 (stereo partly drawn) [Example 205, (3R)-3-(2-(2-chloro-5-fluoro-3,4-dihydroxyphenyl)-2-(4-(3-(isonicotinamido)propyl)-2,3-dioxopiperazine-1-carboxamido)acetamido)-7-fluoro-2-hydroxy-3,4-dihydro-2H-benzo[e][1,2]oxaborinine-8-carboxylic acid] | > 5.00 | > 5.00 | < 1 µg/mL | < 1 µg/mL | < 1 µg/mL | < 1 µg/mL | – | – | – | – | 16 to 32 µg/mL (≈ 21.5 to 43 µM) | 4 to 8 µg/mL (≈ 5.37 to 10.7 µM) | > 64 µg/mL | 16 to 32 µg/mL (≈ 21.5 to 43 µM) |
| O=C(NCCN1CCN(C(=O)NC(C(=O)N[C@H]2Cc3ccc(F)c(C(=O)O)c3OB2O)c2cc(F)c(O)c(O)c2Cl)C(=O)C1=O)c1cccnc1 (stereo partly drawn) [Example 217, (3R)-3-(2-(2-chloro-5-fluoro-3,4-dihydroxyphenyl)-2-(4-(2-(nicotinamido)ethyl)-2,3-dioxopiperazine-1-carboxamido)acetamido)-7-fluoro-2-hydroxy-3,4-dihydro-2H-benzo[e][1,2]oxaborinine-8-carboxylic acid] | > 5.00 | > 5.00 | < 1 µg/mL | < 1 µg/mL | < 1 µg/mL | < 1 µg/mL | – | – | – | – | 16 to 32 µg/mL (≈ 21.9 to 43.8 µM) | 16 to 32 µg/mL (≈ 21.9 to 43.8 µM) | > 64 µg/mL | 16 to 32 µg/mL (≈ 21.9 to 43.8 µM) |
| O=C(NCCN1CCN(C(=O)NC(C(=O)N[C@H]2Cc3ccc(F)c(C(=O)O)c3OB2O)c2cc(F)c(O)c(O)c2Cl)C1=O)c1ccccc1 (stereo partly drawn) [Example 242, (3R)-3-(2-(3-(2-benzamidoethyl)-2-oxoimidazolidine-1-carboxamido)-2-(2-chloro-5-fluoro-3,4-dihydroxyphenyl)acetamido)-7-fluoro-2-hydroxy-3,4-dihydro-2H-benzo[e][1,2]oxaborinine-8-carboxylic acid] | > 5.00 | > 5.00 | < 1 µg/mL | < 1 µg/mL | < 1 µg/mL | 2 to 4 µg/mL (≈ 2.85 to 5.7 µM) | – | – | – | – | 16 to 32 µg/mL (≈ 22.8 to 45.6 µM) | 16 to 32 µg/mL (≈ 22.8 to 45.6 µM) | > 64 µg/mL | 16 to 32 µg/mL (≈ 22.8 to 45.6 µM) |
| O=C(NCCCN1CCN(C(=O)NC(C(=O)N[C@H]2Cc3ccc(F)c(C(=O)O)c3OB2O)c2cc(F)c(O)c(O)c2Cl)C(=O)C1=O)Nc1cccc(O)c1 (stereo partly drawn) [Example 206, (3R)-3-(2-(2-chloro-5-fluoro-3,4-dihydroxyphenyl)-2-(4-(3-(3-(3-hydroxyphenyl)ureido)propyl)-2,3-dioxopiperazine-1-carboxamido)acetamido)-7-fluoro-2-hydroxy-3,4-dihydro-2H-benzo[e][1,2]oxaborinine-8-carboxylic acid] | > 5.00 | > 5.00 | < 1 µg/mL | < 1 µg/mL | < 1 µg/mL | < 1 µg/mL | – | – | – | – | 16 to 32 µg/mL (≈ 20.6 to 41.3 µM) | 16 to 32 µg/mL (≈ 20.6 to 41.3 µM) | > 64 µg/mL | 16 to 32 µg/mL (≈ 20.6 to 41.3 µM) |
| O=C(NCCN1CCN(C(=O)NC(C(=O)N[C@H]2Cc3ccc(F)c(C(=O)O)c3OB2O)c2cc(F)c(O)c(O)c2Cl)C(=O)C1=O)c1cccc(O)c1 (stereo partly drawn) [Example 215, (3R)-3-(2-(2-chloro-5-fluoro-3,4-dihydroxyphenyl)-2-(4-(2-(3-hydroxybenzamido)ethyl)-2,3-dioxopiperazine-1-carboxamido)acetamido)-7-fluoro-2-hydroxy-3,4-dihydro-2H-benzo[e][1,2]oxaborinine-8-carboxylic acid] | > 5.00 | > 5.00 | < 1 µg/mL | < 1 µg/mL | < 1 µg/mL | 8 to 16 µg/mL (≈ 10.7 to 21.5 µM) | – | – | – | – | 16 to 32 µg/mL (≈ 21.5 to 42.9 µM) | 16 to 32 µg/mL (≈ 21.5 to 42.9 µM) | > 64 µg/mL | 16 to 32 µg/mL (≈ 21.5 to 42.9 µM) |
